Experiment [1] addresses T1, Muscarinic acetylcholine receptor M1 (Homo sapiens, UniProt P11229).
T1 sequence (P11229 whole entry): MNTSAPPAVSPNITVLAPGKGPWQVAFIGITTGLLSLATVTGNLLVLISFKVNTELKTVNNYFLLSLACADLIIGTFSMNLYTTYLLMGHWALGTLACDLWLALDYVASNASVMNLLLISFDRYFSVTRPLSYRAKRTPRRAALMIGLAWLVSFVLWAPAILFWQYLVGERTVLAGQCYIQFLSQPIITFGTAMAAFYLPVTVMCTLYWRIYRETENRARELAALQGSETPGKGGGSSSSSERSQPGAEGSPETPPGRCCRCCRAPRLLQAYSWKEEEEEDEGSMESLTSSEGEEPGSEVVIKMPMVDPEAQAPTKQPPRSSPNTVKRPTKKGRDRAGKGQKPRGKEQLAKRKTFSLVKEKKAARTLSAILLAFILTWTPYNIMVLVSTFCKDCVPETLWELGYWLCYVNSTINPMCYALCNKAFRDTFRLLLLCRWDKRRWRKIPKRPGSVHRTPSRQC
In kind it is functional, cell-based.

The target of experiment [2] is T2, Cholecystokinin receptor type A (Homo sapiens, UniProt P32238).
T2 sequence (P32238 whole entry): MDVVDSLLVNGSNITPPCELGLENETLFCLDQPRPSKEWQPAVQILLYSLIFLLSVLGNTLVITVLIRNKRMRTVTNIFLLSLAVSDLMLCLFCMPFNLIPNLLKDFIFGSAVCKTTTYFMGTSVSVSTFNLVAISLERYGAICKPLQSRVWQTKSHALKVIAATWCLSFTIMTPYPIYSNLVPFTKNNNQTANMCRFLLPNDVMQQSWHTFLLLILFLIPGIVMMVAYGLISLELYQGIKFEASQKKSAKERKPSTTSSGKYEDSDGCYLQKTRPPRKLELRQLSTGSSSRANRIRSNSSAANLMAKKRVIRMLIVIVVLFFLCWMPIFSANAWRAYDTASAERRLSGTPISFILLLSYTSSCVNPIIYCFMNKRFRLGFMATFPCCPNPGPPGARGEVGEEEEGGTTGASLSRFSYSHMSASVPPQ

Experiment [3] has as its target T3, 5-hydroxytryptamine receptor 1A (Homo sapiens, UniProt P08908).
T3 sequence (P08908 whole entry): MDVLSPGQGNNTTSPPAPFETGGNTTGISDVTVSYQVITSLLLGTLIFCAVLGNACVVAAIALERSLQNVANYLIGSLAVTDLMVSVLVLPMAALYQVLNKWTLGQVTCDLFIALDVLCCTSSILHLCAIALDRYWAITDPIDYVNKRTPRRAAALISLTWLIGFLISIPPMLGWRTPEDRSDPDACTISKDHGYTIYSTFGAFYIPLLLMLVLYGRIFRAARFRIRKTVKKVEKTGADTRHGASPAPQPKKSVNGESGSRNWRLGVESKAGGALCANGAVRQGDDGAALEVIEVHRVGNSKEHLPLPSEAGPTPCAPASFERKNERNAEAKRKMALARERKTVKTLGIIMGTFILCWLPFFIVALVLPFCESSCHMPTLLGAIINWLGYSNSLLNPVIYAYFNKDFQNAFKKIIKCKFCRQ
In kind it is functional, cell-based.

Experiment [4] has as its target 5-hydroxytryptamine receptor 2B (Homo sapiens, UniProt P41595). In kind it is functional, cell-based.
Experiment [5] has as its target T4, 5-hydroxytryptamine receptor 2C (Homo sapiens, UniProt P28335).
T4 sequence (P28335 whole entry): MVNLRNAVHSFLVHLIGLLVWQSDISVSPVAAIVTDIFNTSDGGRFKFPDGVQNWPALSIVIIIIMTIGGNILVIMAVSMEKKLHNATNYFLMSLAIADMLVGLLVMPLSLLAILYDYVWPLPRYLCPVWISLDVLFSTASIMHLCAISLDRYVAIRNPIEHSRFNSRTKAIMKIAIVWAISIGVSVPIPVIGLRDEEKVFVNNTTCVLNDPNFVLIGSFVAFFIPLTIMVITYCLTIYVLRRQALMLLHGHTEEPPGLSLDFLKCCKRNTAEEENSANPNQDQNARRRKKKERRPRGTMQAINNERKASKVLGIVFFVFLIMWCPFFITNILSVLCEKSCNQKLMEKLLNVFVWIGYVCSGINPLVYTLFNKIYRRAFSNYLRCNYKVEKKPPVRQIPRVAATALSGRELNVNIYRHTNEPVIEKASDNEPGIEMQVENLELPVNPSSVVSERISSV

Experiment [6] deals with T5, Neuropeptide Y receptor type 1 (Homo sapiens, UniProt P25929).
T5 sequence (P25929 whole entry): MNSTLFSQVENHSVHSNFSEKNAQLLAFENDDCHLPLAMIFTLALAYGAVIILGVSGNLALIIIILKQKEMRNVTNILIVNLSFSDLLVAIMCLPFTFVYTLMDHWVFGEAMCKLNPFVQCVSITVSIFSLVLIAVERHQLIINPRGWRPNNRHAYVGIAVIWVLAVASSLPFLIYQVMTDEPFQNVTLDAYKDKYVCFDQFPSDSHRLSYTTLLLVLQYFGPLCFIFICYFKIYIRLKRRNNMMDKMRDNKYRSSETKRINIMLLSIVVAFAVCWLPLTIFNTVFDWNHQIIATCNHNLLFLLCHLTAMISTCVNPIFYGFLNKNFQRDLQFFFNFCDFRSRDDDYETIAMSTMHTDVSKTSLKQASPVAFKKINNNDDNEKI

Experiment [7] has as its target Sodium-dependent dopamine transporter (Homo sapiens, UniProt Q01959).
A further experiment concerns the target D(3) dopamine receptor (Homo sapiens, UniProt P35462).
Further: assay procedure not described here.

Sodium-dependent dopamine transporter, sequence (Q01959 whole entry): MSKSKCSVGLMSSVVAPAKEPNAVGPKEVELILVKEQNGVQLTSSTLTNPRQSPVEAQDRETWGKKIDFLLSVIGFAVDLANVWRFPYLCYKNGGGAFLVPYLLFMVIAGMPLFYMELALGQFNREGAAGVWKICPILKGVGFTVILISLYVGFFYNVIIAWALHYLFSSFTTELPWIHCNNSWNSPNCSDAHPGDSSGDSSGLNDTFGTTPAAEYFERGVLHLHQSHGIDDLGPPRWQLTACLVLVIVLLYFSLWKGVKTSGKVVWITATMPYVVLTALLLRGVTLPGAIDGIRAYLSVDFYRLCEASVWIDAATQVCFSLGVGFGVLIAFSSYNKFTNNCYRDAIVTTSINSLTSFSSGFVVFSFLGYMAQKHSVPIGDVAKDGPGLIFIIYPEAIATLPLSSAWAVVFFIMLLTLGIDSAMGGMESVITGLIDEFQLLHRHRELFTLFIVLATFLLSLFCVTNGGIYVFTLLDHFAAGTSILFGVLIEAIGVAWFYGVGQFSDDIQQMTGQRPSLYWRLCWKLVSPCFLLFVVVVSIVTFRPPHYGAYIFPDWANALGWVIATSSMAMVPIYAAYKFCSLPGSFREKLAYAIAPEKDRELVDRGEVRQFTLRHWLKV
5-hydroxytryptamine receptor 2B, sequence (P41595 whole entry): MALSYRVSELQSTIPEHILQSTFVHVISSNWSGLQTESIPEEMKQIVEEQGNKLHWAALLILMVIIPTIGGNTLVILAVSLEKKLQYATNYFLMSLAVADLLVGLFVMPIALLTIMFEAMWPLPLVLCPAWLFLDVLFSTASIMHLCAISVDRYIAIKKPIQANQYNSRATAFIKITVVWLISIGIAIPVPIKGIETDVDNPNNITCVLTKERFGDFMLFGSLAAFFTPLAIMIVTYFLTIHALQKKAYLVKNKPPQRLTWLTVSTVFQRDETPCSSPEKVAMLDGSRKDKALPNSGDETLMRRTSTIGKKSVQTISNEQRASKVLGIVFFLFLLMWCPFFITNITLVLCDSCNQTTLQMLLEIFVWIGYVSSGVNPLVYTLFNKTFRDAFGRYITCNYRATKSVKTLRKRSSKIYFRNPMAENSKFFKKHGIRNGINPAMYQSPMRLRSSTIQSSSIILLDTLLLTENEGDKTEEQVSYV
D(3) dopamine receptor, sequence (P35462 whole entry): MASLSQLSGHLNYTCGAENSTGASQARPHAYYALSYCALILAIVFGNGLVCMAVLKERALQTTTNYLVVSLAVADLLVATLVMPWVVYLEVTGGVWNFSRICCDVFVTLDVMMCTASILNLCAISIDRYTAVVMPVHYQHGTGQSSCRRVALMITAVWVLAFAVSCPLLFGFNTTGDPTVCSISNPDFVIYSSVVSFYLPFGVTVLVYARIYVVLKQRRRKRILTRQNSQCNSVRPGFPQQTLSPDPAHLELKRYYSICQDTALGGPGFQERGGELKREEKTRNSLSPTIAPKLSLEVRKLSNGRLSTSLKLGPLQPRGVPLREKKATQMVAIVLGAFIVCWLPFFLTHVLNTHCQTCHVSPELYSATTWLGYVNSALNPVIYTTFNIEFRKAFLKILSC

The AC50 is the midpoint of the concentration-response curve, whichever way the signal moves. A high value points to activity only at high concentration. Turning to `CC(C1=C(CCN(C)C)Cc2ccccc21)c1ccccn1` (configuration not stated), the AC50 in experiment [1] was above 30 µM. Still for that read-out and setting: the figure for `CC(=O)OC(C)OC(=O)C(C)c1ccc(-c2ccccc2)c(F)c1` (configuration not stated) is above 30 µM; for `C[C@H](N)C(=O)O` [ALANINE] it is above 30 µM; for `O=C1c2c(O)cccc2Cc2cccc(O)c21` [ANTHRALIN] it is above 30 µM.

Regarding `CNC(=O)C[C@@H](N)C(=O)N[C@@H](C(=O)N[C@@H]1C(=O)N2[C@@H]1SC(C)(C)[C@@H]2C(=O)O)c1ccc(O)cc1` [ASPOXICILLIN], the AC50 in experiment [1] is above 30 µM. With `COC(=O)C1=C(C)NC(C)=C(C(=O)O[C@H]2CCN(Cc3ccccc3)C2)[C@H]1c1cccc([N+](=O)[O-])c1` [BARNIDIPINE], the AC50 in experiment [1] is above 30 µM. On the same count and under the same terms, for `C[C@@H](O)[C@H]1C(=O)N2C(C(=O)[O-])=C(SC3Cn4cnc[n+]4C3)[C@H](C)[C@H]12` (some centres not stated) [BIAPENEM] the value was above 30 µM. With `CCCCOc1ccc(CC(=O)NO)cc1` [BUFEXAMAC], in experiment [1], the AC50 is above 30 µM. As for `Cc1nnc(SCC2=C(C(=O)O)N3C(=O)[C@@H](NC(=O)Cn4cc(Cl)c(=O)c(Cl)c4)[C@H]3SC2)s1` [CEFAZEDONE], the AC50 in experiment [1] was above 30 µM. Regarding `Nc1ncnc(Nc2ccc(Cl)cc2)n1` [CHLORAZANIL], the AC50 in experiment [1] was above 30 µM. `CCC[C@@H]1C[C@@H](C(=O)N[C@@H]([C@H]2O[C@H](SC)[C@H](OP(=O)(O)O)[C@@H](O)[C@H]2O)[C@H](C)Cl)N(C)C1` [CLINDAMYCIN PHOSPHATE] displayed an AC50 in experiment [1] above 30 µM. `C[C@@H]1C[C@H]2[C@@H]3C[C@H](F)C4=CC(=O)C=C[C@]4(C)[C@@]3(Cl)[C@@H](O)C[C@]2(C)[C@H]1C(=O)COC(=O)C(C)(C)C` [CLOCORTOLONE PIVALATE] showed an AC50 in experiment [1] above 30 µM. In the case of `O=P(O)(O)C(Cl)(Cl)P(=O)(O)O` [CLODRONIC ACID], the AC50 in experiment [1] was above 30 µM. Turning to `Nc1ccncc1` [DALFAMPRIDINE], the AC50 in experiment [1] amounted to 27.9 µM. Compound `Cc1onc(-c2c(Cl)cccc2Cl)c1C(=O)N[C@@H]1C(=O)N2[C@@H]1SC(C)(C)[C@@H]2C(=O)O` [DICLOXACILLIN] displayed an AC50 in experiment [1] above 30 µM. Consider `C[C@@H](O)[C@H]1C(=O)N2C(C(=O)O)=C([C@H]3CCCO3)S[C@H]12` [FAROPENEM], for which, in experiment [1], the AC50 is above 30 µM. For the compound `CCOC(=O)c1ccc(OC(=O)CCCCCNC(=N)N)cc1` [GABEXATE], the AC50 in experiment [1] was above 30 µM. Regarding `CCCCC/C=C\C/C=C\C/C=C\CCCCC(=O)O` [GAMOLENIC ACID], the AC50 in experiment [1] was above 30 µM. In experiment [1], `COCCOc1cnc(NS(=O)(=O)c2ccccc2)nc1` [GLYMIDINE] displayed an AC50 above 30 µM. Compound `CC(N)CCCC(C)(C)O` (configuration not stated) [HEPTAMINOL] gave an AC50 in experiment [1] above 30 µM. Compound `CCC(=O)O[C@]1(C(=O)COC(C)=O)CC[C@H]2[C@@H]3CCC4=CC(=O)CC[C@]4(C)[C@H]3[C@@H](O)C[C@@]21C` [HYDROCORTISONE ACEPONATE] registered an AC50 in experiment [1] above 30 µM. For `O=[N+]([O-])O[C@H]1CO[C@H]2[C@@H]1OC[C@H]2O[N+](=O)[O-]` [ISOSORBIDE DINITRATE], in experiment [1], the AC50 was above 30 µM. As for `NC(=O)NCCC[C@H](N)C(=O)O` [L-CITRULLINE], the AC50 in experiment [1] is above 30 µM. The compound `CC(=O)O[C@H]1C[C@H](O[C@H]2[C@@H](O)C[C@H](O[C@H]3[C@@H](O)C[C@H](O[C@H]4CC[C@@]5(C)[C@H](CC[C@@H]6[C@@H]5C[C@@H](O)[C@]5(C)[C@@H](C7=CC(=O)OC7)CC[C@]65O)C4)O[C@@H]3C)O[C@@H]2C)O[C@H](C)[C@H]1O[C@@H]1O[C@H](CO)[C@@H](O)[C@H](O)[C@H]1O` [LANATOSIDE C] showed an AC50 in experiment [1] above 30 µM. In experiment [1], `Nc1nc(N)nc(Nc2ccc([As]3SCC(CO)S3)cc2)n1` (configuration not stated) [MELARSOPROL] gave an AC50 above 30 µM. In turn, `Cc1cc(CCN2CCN(c3cccc(Cl)c3)CC2)n[nH]1` [MEPIPRAZOLE] came in with an AC50 in experiment [1] above 30 µM. For `CC[N+](C)(CC)CCOC(=O)C1c2ccccc2Oc2ccccc21` [METHANTHELINE], in experiment [1], the AC50 was above 30 µM. In experiment [1], `CO[C@H]1[C@@H](O)C[C@H](O[C@H]2[C@@H](O)C[C@H](O[C@H]3[C@@H](O)C[C@H](O[C@H]4CC[C@@]5(C)[C@H](CC[C@@H]6[C@@H]5C[C@@H](O)[C@]5(C)[C@@H](C7=CC(=O)OC7)CC[C@]65O)C4)O[C@@H]3C)O[C@@H]2C)O[C@@H]1C` [METILDIGOXIN] returned an AC50 above 30 µM. In experiment [1], `CC1(C)S[C@@H]2[C@H](NC(=O)[C@H](NC(=O)N3CCN(S(C)(=O)=O)C3=O)c3ccccc3)C(=O)N2[C@H]1C(=O)O` [MEZLOCILLIN] yielded an AC50 above 30 µM. In experiment [1], `CCOC(=O)[C@H](CCc1ccccc1)N[C@@H](C)C(=O)N1Cc2cc(OC)c(OC)cc2C[C@H]1C(=O)O` [MOEXIPRIL] showed an AC50 above 30 µM.

For `CC(c1ccc(Cl)c(Cl)c1)N1N=C(N)CC1=O` (configuration not stated) [MUZOLIMINE], the AC50 in experiment [1] was above 30 µM. For the compound `CCN(CC)CCOC(=O)C(Cc1cccc2ccccc12)CC1CCCO1` (configuration not stated) [NAFRONYL], the AC50 in experiment [1] was above 30 µM. Consider `c1ccc2c(CC3=NCCN3)cccc2c1` [NAPHAZOLINE], for which the AC50 in experiment [1] is above 30 µM. Same read-out and setting: for `N[C@@H](Cc1c[nH]c2ccc(O)cc12)C(=O)O` [OXITRIPTAN] the value was above 30 µM. `COCCCOc1ccnc(C[S+]([O-])c2nc3ccccc3[nH]2)c1C` (configuration not stated) [RABEPRAZOLE]: the AC50 was above 30 µM in experiment [2]; above 10 µM in experiment [3]; 12 µM in experiment [4]; above 30 µM in experiment [5]; 20.5 µM in experiment [6]; above 10 µM in experiment [7]. In addition, the AC50 at D(3) dopamine receptor is above 10 µM.

As for `CC(C)=CCOc1ccc(/C=C/C(=O)c2ccc(OCC=C(C)C)cc2OCC(=O)O)cc1` [SOFALCONE], the AC50 in experiment [2] was above 30 µM; in experiment [3] it was above 30 µM; in experiment [4] it was above 30 µM; in experiment [5] it was above 30 µM; in experiment [6], above 30 µM; in experiment [7], 13 µM. The AC50 at D(3) dopamine receptor was above 30 µM. As to `CN(C)c1cc(NC(=O)CNC(C)(C)C)c(O)c2c1C[C@H]1C[C@H]3[C@H](N(C)C)C(O)=C(C(N)=O)C(=O)[C@@]3(O)C(O)=C1C2=O` [TIGECYCLINE], the AC50 in experiment [2], in experiment [3], in experiment [4], in experiment [5], in experiment [6] and in experiment [7] was above 30 µM each time. Also, the AC50 at D(3) dopamine receptor is above 30 µM. As to `OCCN1CCN(CC/C=C2/c3ccccc3Sc3ccc(Cl)cc32)CC1` [ZUCLOPENTHIXOL], the AC50 in experiment [2] is above 10 µM; in experiment [3], above 10 µM; in experiment [4] it was 0.92 µM; in experiment [5], 1 µM; in experiment [6], above 10 µM; in experiment [7], 1 µM. In addition, the AC50 on D(3) dopamine receptor turned out to be 0.046 µM.

The values are drawn from ChEMBL document CHEMBL5291721, “A preclinical secondary pharmacology resource illuminates target-adverse drug reaction associations of marketed drugs” (Nat Commun, 2023).
